Data reported in publication PMC6511062, “Preclinical candidate for the treatment of visceral leishmaniasis that acts through proteasome inhibition” (Proceedings of the National Academy of Sciences of the …, 2019).

Assays:
bloodstream T. brucei = experiment: Cell cycle (FACS) analysis, bloodstream T. brucei; format: cell-based, Trypanosoma brucei; settings: 5x EC50
Protocol: consisted of 1 µL (40 ng) of cDNA, 10 µL of Brilliant III Ultra-Fast QPCR Master Mix (Agilent Technologies), 1 µL (500 nM) each of the forward and reverse primers, and 0.3 µl (30 nM) of reference dye and nuclease-free PCR grade-treated water. PCR was performed using an Agilent Mx3005P machine with the following cycling conditions:
95°C for 3 min; 40 cycles of 95°C for 20 s; then 60 °C for 20 s. The reference gene TERT (Tb927.11.10190, telomerase reverse transcriptase) was used to provide a baseline of transcription levels for normalization of the data. Relative quantification in the tetracycline-induced cell lines were normalized to the un-induced cell line using the […]
h. Morphological analysis […]
Cultures of bloodstream T. brucei and L. donovani promastigotes at starting cell densities of 5 x 105 were incubated with concentrations of compound 7 equivalent to 5x their respective EC50 values. […] After washing, cell densities were adjusted to 5 × 10^5 cells mL, re-suspended in 500 µL of PBS containing 50 µg/mL propidium iodide, 50 µg/mL RNase and 0.1% Triton X-100, incubated at room temperature for 20 min in the dark and analysed using FACSort analytical flow cytometer using Cellquest software (BD Biosciences). j. […]

TA1537 = experiment: Ames test, strain TA1537
Protocol: (§1) oxidative metabolism system (S9-mix). The maximum concentration tested and […]
(§2) Compound 7a was tested in a bacterial mutation screening assay (Ames test) with Salmonella typhimurium TA1535, TA1537, TA98, TA100 and Escherichia coli WP2uvrA(pKM101) in the presence and absence of an exogenous mammalian […]
(§3) The bacterial mutation screening assay was a plate incorporation test carried out as previously described15 and according to current methodology. […]

TA98 = experiment: Ames test, strain TA98
Protocol: as §1, §2, §3

[1] = with S9-mix, dose level 50 per plate
[2] = with S9-mix, dose level 150 per plate
[3] = with S9-mix, dose level 500 per plate
[4] = with S9-mix, dose level 1500 per plate
[5] = with S9-mix, dose level 2500 per plate
[6] = with S9-mix, dose level 5000 per plate
[7] = without S9-mix, dose level 50 per plate
[8] = without S9-mix, dose level 150 per plate
[9] = without S9-mix, dose level 500 per plate
[10] = without S9-mix, dose level 1500 per plate
[11] = without S9-mix, dose level 2500 per plate
[12] = without S9-mix, dose level 5000 per plate

O=C(Nc1ccc(F)c(-c2cn3nc(-c4ccccc4)cnc3n2)c1)N1CCCC1 [Compound 7]
effect on cell cycle progression (bloodstream T. brucei): accumulation of cells in G2/M

O=C(Nc1ccc(F)c(-c2ccn3c(N4CCOCC4)cnc3n2)c1)N1CCCC1 [Compound 8]
Mean revertants per plate (TA1537; [1]): 18.0
Mean revertants per plate (TA1537; [2]): 14.5
Mean revertants per plate (TA1537; [3]): 21.0
Mean revertants per plate (TA1537; [4]): 11.0
Mean revertants per plate (TA1537; [5]): 13.5
Mean revertants per plate (TA1537; [6]): 8.5
Mean revertants per plate (TA1537; [7]): 14.0
Mean revertants per plate (TA1537; [8]): 9.5
Mean revertants per plate (TA1537; [9]): 16.0
Mean revertants per plate (TA1537; [10]): 12.5
Mean revertants per plate (TA1537; [11]): 14.5
Mean revertants per plate (TA1537; [12]): 6.5
Mean revertants per plate (TA98; [1]): 23.0
Mean revertants per plate (TA98; [2]): 25.0
Mean revertants per plate (TA98; [3]): 30.0
Mean revertants per plate (TA98; [4]): 24.5
Mean revertants per plate (TA98; [5]): 25.5
Mean revertants per plate (TA98; [6]): 25.0
Mean revertants per plate (TA98; [7]): 22.5
Mean revertants per plate (TA98; [8]): 19.0
Mean revertants per plate (TA98; [9]): 14.5
Mean revertants per plate (TA98; [10]): 19.5
Mean revertants per plate (TA98; [11]): 16.5
Mean revertants per plate (TA98; [12]): 18.0
